# Data taken from article PMC5218480 (PLoS ONE, 2017).
# Tested on: MV-4-11 cells
# Assay: Gene expression microarray analysis (Affymetrix PrimeView) and GSEA
# Assay type: cell-based, human
# Design: RFU PODN (11730768_x_at) / Fold change /veh PODN (11730768_x_at) / RFU LINC00158 (11744669_a_at) / Fold change /veh LINC00158 (11744669_a_at) / RFU DUSP10 (11751237_a_at) / Fold change /veh DUSP10 (11751237_a_at) / RFU ID3 (11757404_x_at) / Fold change /veh ID3 (11757404_x_at) / RFU PLEKHG5 (11737974_s_at) / Fold change /veh PLEKHG5 (11737974_s_at) / RFU LRRC4B (11730491_at) / Fold change /veh LRRC4B (11730491_at) / RFU GIMAP4 (11747438_a_at) / Fold change /veh GIMAP4 (11747438_a_at) / RFU KRT8 (11758183_x_at) / Fold change /veh KRT8 (11758183_x_at) / RFU CNN1 (11734310_a_at) / Fold change /veh CNN1 (11734310_a_at) / RFU VPS37D (11726825_at) / Fold change /veh VPS37D (11726825_at) / RFU C10orf10 (11716522_x_at) / Fold change /veh C10orf10 (11716522_x_at) / RFU KIR2DL2 /// KIR2DL4 /// KIR2DL5A /// KIR2DL5B /// KIR2DS1 /// KIR2DS2 /// KIR2DS3 /// KIR2DS4 /// KIR3DL3 /// KIR3DL3 /// KIR3DS1 (11738374_at) / Fold change /veh KIR2DL2 /// KIR2DL4 /// KIR2DL5A /// KIR2DL5B /// KIR2DS1 /// KIR2DS2 /// KIR2DS3 /// KIR2DS4 /// KIR3DL3 /// KIR3DL3 /// KIR3DS1 (11738374_at) / RFU C1QL1 (11718748_at) / Fold change /veh C1QL1 (11718748_at) / RFU TMPRSS4 (11747572_a_at) / Fold change /veh TMPRSS4 (11747572_a_at) / RFU HAMP (11756126_x_at) / Fold change /veh HAMP (11756126_x_at) / RFU RNFT2 (11725882_a_at) / Fold change /veh RNFT2 (11725882_a_at) / RFU NR4A2 (11747474_a_at) / Fold change /veh NR4A2 (11747474_a_at) / RFU ABCC12 (11746883_a_at) / Fold change /veh ABCC12 (11746883_a_at) / RFU TMEM136 (11760407_x_at) / Fold change /veh TMEM136 (11760407_x_at) / RFU CLDN22 /// WWC2 (11732394_at) / Fold change /veh CLDN22 /// WWC2 (11732394_at) / RFU HLA-DPB1 (11760878_x_at) / Fold change /veh HLA-DPB1 (11760878_x_at) / RFU SPINT1 (11716480_a_at) / Fold change /veh SPINT1 (11716480_a_at) / RFU GAP43 (11754022_s_at) / Fold change /veh GAP43 (11754022_s_at) / RFU A4GNT (11735810_at) / Fold change /veh A4GNT (11735810_at) / RFU PRB3 (11715151_x_at) / Fold change /veh PRB3 (11715151_x_at) / RFU TUBB4B (11761932_at) / Fold change /veh TUBB4B (11761932_at) / RFU CAPN14 (11732068_a_at) / Fold change /veh CAPN14 (11732068_a_at) / RFU TMCC2 (11721928_a_at) / Fold change /veh TMCC2 (11721928_a_at) / RFU IRGQ (11745062_a_at) / Fold change /veh IRGQ (11745062_a_at) / RFU FAM174B (11720279_a_at) / Fold change /veh FAM174B (11720279_a_at) / RFU TMPRSS4 (11748680_a_at) / Fold change /veh TMPRSS4 (11748680_a_at) / RFU FAM212B (11763350_a_at) / Fold change /veh FAM212B (11763350_a_at) / RFU PLEKHG5 (11743358_a_at) / Fold change /veh PLEKHG5 (11743358_a_at) / RFU ZSCAN30 (11745921_a_at) / Fold change /veh ZSCAN30 (11745921_a_at) / RFU CMKLR1 (11741424_a_at) / Fold change /veh CMKLR1 (11741424_a_at) / RFU LOC101060620 /// MAPK8IP1 (11723275_at) / Fold change /veh LOC101060620 /// MAPK8IP1 (11723275_at) / RFU SPTSSB (11747773_x_at) / Fold change /veh SPTSSB (11747773_x_at) / RFU PRSS12 (11739890_at) / Fold change /veh PRSS12 (11739890_at) / RFU BIN1 (11741810_x_at) / Fold change /veh BIN1 (11741810_x_at) / RFU WNT11 (11732464_a_at) / Fold change /veh WNT11 (11732464_a_at) / RFU C10orf10 (11716521_a_at) / Fold change /veh C10orf10 (11716521_a_at) / RFU C5orf56 (11738089_at) / Fold change /veh C5orf56 (11738089_at) / RFU CYB561 (11721691_x_at) / Fold change /veh CYB561 (11721691_x_at) / RFU ANKRD19P (11752326_a_at) / Fold change /veh ANKRD19P (11752326_a_at) / RFU OR2T12 /// OR2T33 /// OR2T8 (11738714_s_at) / Fold change /veh OR2T12 /// OR2T33 /// OR2T8 (11738714_s_at) / RFU VCAN (11748164_a_at) / Fold change /veh VCAN (11748164_a_at) / RFU JSRP1 (11732532_at) / Fold change /veh JSRP1 (11732532_at) / RFU KRTAP10-11 (11738290_x_at) / Fold change /veh KRTAP10-11 (11738290_x_at) / RFU MYO3A (11730013_a_at) / Fold change /veh MYO3A (11730013_a_at) / RFU EBF3 (11725865_a_at) / Fold change /veh EBF3 (11725865_a_at) / RFU CAMK2N1 (11719241_x_at) / Fold change /veh CAMK2N1 (11719241_x_at) / RFU C5orf56 (11738088_a_at) / Fold change /veh C5orf56 (11738088_a_at) / RFU OLFML3 (11715873_a_at) / Fold change /veh OLFML3 (11715873_a_at) / RFU LOC100653217 /// NTM (11731650_a_at) / Fold change /veh LOC100653217 /// NTM (11731650_a_at) / RFU MAPK11 (11762145_a_at) / Fold change /veh MAPK11 (11762145_a_at) / RFU FIZ1 (11724087_x_at) / Fold change /veh FIZ1 (11724087_x_at) / RFU OASL (11726364_x_at) / Fold change /veh OASL (11726364_x_at) / RFU SOX15 (11748057_x_at) / Fold change /veh SOX15 (11748057_x_at) / RFU CD79A (11719716_a_at) / Fold change /veh CD79A (11719716_a_at) / RFU HIST1H1D (11736915_at) / Fold change /veh HIST1H1D (11736915_at) / RFU CASKIN2 (11723855_a_at) / Fold change /veh CASKIN2 (11723855_a_at) / RFU LOC730098 (11760151_x_at) / Fold change /veh LOC730098 (11760151_x_at) / RFU OR4N2 (11742367_at) / Fold change /veh OR4N2 (11742367_at) / RFU PRRT2 (11749266_a_at) / Fold change /veh PRRT2 (11749266_a_at) / RFU SNX32 (11753110_a_at) / Fold change /veh SNX32 (11753110_a_at) / RFU CDHR5 (11726645_a_at) / Fold change /veh CDHR5 (11726645_a_at) / RFU RCAN1 (11760418_a_at) / Fold change /veh RCAN1 (11760418_a_at) / RFU FAM167A (11723789_a_at) / Fold change /veh FAM167A (11723789_a_at) / RFU FAM26E (11764081_at) / Fold change /veh FAM26E (11764081_at) / RFU ISYNA1 (11749810_s_at) / Fold change /veh ISYNA1 (11749810_s_at) / RFU ACY1 (11761880_at) / Fold change /veh ACY1 (11761880_at) / RFU 11764098_at / Fold change /veh 11764098_at / RFU SAMD14 (11745864_x_at) / Fold change /veh SAMD14 (11745864_x_at) / RFU NPB (11741838_a_at) / Fold change /veh NPB (11741838_a_at) / RFU TMPRSS6 (11731388_a_at) / Fold change /veh TMPRSS6 (11731388_a_at) / RFU KRTAP10-2 (11738614_at) / Fold change /veh KRTAP10-2 (11738614_at) / RFU ARHGAP8 /// PRR5-ARHGAP8 (11727945_x_at) / Fold change /veh ARHGAP8 /// PRR5-ARHGAP8 (11727945_x_at) / RFU KRTAP5-7 /// NADSYN1 (11734609_at) / Fold change /veh KRTAP5-7 /// NADSYN1 (11734609_at) / RFU RASL12 (11751679_a_at) / Fold change /veh RASL12 (11751679_a_at) / RFU CDKN2B (11736163_a_at) / Fold change /veh CDKN2B (11736163_a_at) / RFU PRF1 (11729649_at) / Fold change /veh PRF1 (11729649_at) / RFU, ZNF638 /// ZNF638-IT1 / Fold change vs veh, ZNF638 /// ZNF638-IT1 / RFU, PANK3 / Fold change vs veh, PANK3 / RFU, SH3YL1 / Fold change vs veh, SH3YL1 / RFU, ZEB2 / Fold change vs veh, ZEB2 / RFU, NRIP1 / Fold change vs veh, NRIP1 / RFU, PTTG1IP / Fold change vs veh, PTTG1IP / RFU, CAPN2 / Fold change vs veh, CAPN2 / RFU, MED14 / Fold change vs veh, MED14 / RFU, SNORA58 / Fold change vs veh, SNORA58 / RFU, C1orf63 / Fold change vs veh, C1orf63 / RFU, LRRFIP1 / Fold change vs veh, LRRFIP1 / RFU, NDUFAF7 / Fold change vs veh, NDUFAF7 / RFU, SLC12A2 / Fold change vs veh, SLC12A2 / RFU, IBTK / Fold change vs veh, IBTK / RFU, ESF1 / Fold change vs veh, ESF1 / Fold change vs veh, TMEM50B / RFU, TAOK1 / Fold change vs veh, TAOK1 / RFU, ACBD3 / Fold change vs veh, ACBD3 / RFU, TMA16 / Fold change vs veh, TMA16 / RFU, RWDD3 / Fold change vs veh, RWDD3 / RFU, BCAT1 / Fold change vs veh, BCAT1 / RFU, EDEM3 / Fold change vs veh, EDEM3 / RFU, TMEM33 / Fold change vs veh, TMEM33 / RFU, WDR75 / Fold change vs veh, WDR75 / RFU, AHCTF1 / Fold change vs veh, AHCTF1 / RFU, TFRC / Fold change vs veh, TFRC / RFU, ZDHHC17 / Fold change vs veh, ZDHHC17 / RFU, NOM1 / Fold change vs veh, NOM1 / RFU, ARL8B / Fold change vs veh, ARL8B / RFU, ZBTB11 / Fold change vs veh, ZBTB11 / RFU, TAMM41 / Fold change vs veh, TAMM41 / RFU, KIAA1704 /// LOC100996395 / Fold change vs veh, KIAA1704 /// LOC100996395 / RFU, ING1 / Fold change vs veh, ING1 / RFU, TRMT61B / Fold change vs veh, TRMT61B / RFU, FUBP3 / Fold change vs veh, FUBP3 / RFU, TP53 / Fold change vs veh, TP53 / RFU, TNKS2 / Fold change vs veh, TNKS2 / RFU, ZFP14 / Fold change vs veh, ZFP14 / RFU, ACTR2 / Fold change vs veh, ACTR2 / RFU, PPP3R1 / Fold change vs veh, PPP3R1 / RFU, PIK3R1 / Fold change vs veh, PIK3R1 / RFU, HNRNPA1 / Fold change vs veh, HNRNPA1 / RFU, RNF170 / Fold change vs veh, RNF170 / RFU, ZNF28 / Fold change vs veh, ZNF28 / RFU, RNGTT / Fold change vs veh, RNGTT / RFU, OGT / Fold change vs veh, OGT / RFU, BRD1 / Fold change vs veh, BRD1 / RFU, MARS / Fold change vs veh, MARS / RFU, ZNF655 / Fold change vs veh, ZNF655 / RFU, FAHD1 / Fold change vs veh, FAHD1 / RFU, BDP1 / Fold change vs veh, BDP1 / RFU, LRRCC1 / Fold change vs veh, LRRCC1 / RFU, ARID1A / Fold change vs veh, ARID1A / RFU, ZNF146 / Fold change vs veh, ZNF146 / RFU, ZNF330 / Fold change vs veh, ZNF330 / RFU, GPN3 / Fold change vs veh, GPN3 / RFU, C9orf123 / Fold change vs veh, C9orf123 / RFU, N4BP2L2 / Fold change vs veh, N4BP2L2 / RFU, ARFIP1 / Fold change vs veh, ARFIP1 / RFU, FAM179B / Fold change vs veh, FAM179B / RFU, BCL10 / Fold change vs veh, BCL10 / RFU, UHRF1BP1L / Fold change vs veh, UHRF1BP1L / RFU, BET1 / Fold change vs veh, BET1 / RFU, CNOT2 / Fold change vs veh, CNOT2 / RFU, ZNF268 / Fold change vs veh, ZNF268 / Fold change vs veh, ZNF507 / RFU, DGCR2 / Fold change vs veh, DGCR2 / RFU, WDSUB1 / Fold change vs veh, WDSUB1 / Fold change vs veh, HSP90B1 /// MIR3652 / RFU, ADSS / Fold change vs veh, ADSS / RFU, GK / Fold change vs veh, GK / RFU, ZNF148 / Fold change vs veh, ZNF148 / RFU, TAF9 / Fold change vs veh, TAF9 / RFU, SLC1A5 / Fold change vs veh, SLC1A5 / RFU, SLMO2 / Fold change vs veh, SLMO2 / RFU, ABCC4 / Fold change vs veh, ABCC4 / RFU, LOC101060439 /// RAP1B / Fold change vs veh, LOC101060439 /// RAP1B / RFU, RFX7 / Fold change vs veh, RFX7 / RFU, GTPBP10 / Fold change vs veh, GTPBP10 / RFU, CNEP1R1 / Fold change vs veh, CNEP1R1 / RFU, BIVM-ERCC5 /// ERCC5 / Fold change vs veh, BIVM-ERCC5 /// ERCC5 / RFU, ILF3 / Fold change vs veh, ILF3 / RFU 11762660_at / Fold change /veh 11762660_at / RFU VCAN (11757783_s_at) / Fold change /veh VCAN (11757783_s_at) / RFU DDX43 (11728927_at) / Fold change /veh DDX43 (11728927_at) / RFU KRT8 (11758188_x_at) / Fold change /veh KRT8 (11758188_x_at) / RFU NKD1 (11759106_at) / Fold change /veh NKD1 (11759106_at) / RFU SRD5A1 (11742802_a_at) / Fold change /veh SRD5A1 (11742802_a_at) / RFU TPSAB1 /// TPSB2 (11721975_s_at) / Fold change /veh TPSAB1 /// TPSB2 (11721975_s_at) / RFU GSTM3 (11746129_a_at) / Fold change /veh GSTM3 (11746129_a_at) / RFU IL23R (11737362_x_at) / Fold change /veh IL23R (11737362_x_at) / RFU TMEM51 (11727254_a_at) / Fold change /veh TMEM51 (11727254_a_at) / RFU PIWIL2 (11732686_x_at) / Fold change /veh PIWIL2 (11732686_x_at) / RFU ORM1 (11744905_x_at) / Fold change /veh ORM1 (11744905_x_at) / RFU CCDC152 (11743942_at) / Fold change /veh CCDC152 (11743942_at) / RFU ECM1 (11717891_a_at) / Fold change /veh ECM1 (11717891_a_at) / RFU IL23R (11748794_a_at) / Fold change /veh IL23R (11748794_a_at) / RFU TNFAIP8L3 (11732012_x_at) / Fold change /veh TNFAIP8L3 (11732012_x_at) / RFU MBOAT4 (11741988_at) / Fold change /veh MBOAT4 (11741988_at) / RFU 11764193_at / Fold change /veh 11764193_at / RFU TMEM53 (11763286_at) / Fold change /veh TMEM53 (11763286_at) / RFU MAGEB2 (11727129_at) / Fold change /veh MAGEB2 (11727129_at) / RFU TMEM200A (11744735_a_at) / Fold change /veh TMEM200A (11744735_a_at) / RFU CCDC152 (11751479_a_at) / Fold change /veh CCDC152 (11751479_a_at) / RFU FAM211A (11726209_a_at) / Fold change /veh FAM211A (11726209_a_at) / RFU RGS16 (11746705_a_at) / Fold change /veh RGS16 (11746705_a_at) / RFU VCAN (11755009_s_at) / Fold change /veh VCAN (11755009_s_at) / RFU RHOB (11743442_s_at) / Fold change /veh RHOB (11743442_s_at) / RFU RGS16 (11720943_a_at) / Fold change /veh RGS16 (11720943_a_at) / RFU RGS16 (11720944_at) / Fold change /veh RGS16 (11720944_at) / RFU, VPS4B / Fold change vs veh, VPS4B / RFU, CREB1 / Fold change vs veh, CREB1 / RFU, DNAJC13 / Fold change vs veh, DNAJC13 / RFU, GNAQ / Fold change vs veh, GNAQ / RFU, CDK5R1 / Fold change vs veh, CDK5R1 / RFU, ZRANB3 / Fold change vs veh, ZRANB3 / RFU, CUL4A / Fold change vs veh, CUL4A / RFU, CCNY / Fold change vs veh, CCNY / RFU, UFL1 / Fold change vs veh, UFL1 / RFU, COG3 / Fold change vs veh, COG3 / RFU, DIAPH2 / Fold change vs veh, DIAPH2 / RFU, SKA2 / Fold change vs veh, SKA2 / RFU, AFF3 / Fold change vs veh, AFF3 / RFU, LMF1 / Fold change vs veh, LMF1 / RFU, IPO11 / Fold change vs veh, IPO11 / RFU, DFFB / Fold change vs veh, DFFB / RFU, FOXP1 / Fold change vs veh, FOXP1 / RFU, CARD8 / Fold change vs veh, CARD8 / RFU, STRN3 / Fold change vs veh, STRN3 / RFU, ADK / Fold change vs veh, ADK / RFU, RASSF2 / Fold change vs veh, RASSF2 / RFU, WIPF1 / Fold change vs veh, WIPF1 / RFU, LARP1B / Fold change vs veh, LARP1B / RFU, RASA1 / Fold change vs veh, RASA1 / RFU, RB1 / Fold change vs veh, RB1 / RFU, PPFIA1 / Fold change vs veh, PPFIA1 / RFU, MAT2A / Fold change vs veh, MAT2A / RFU, CCT5 / Fold change vs veh, CCT5 / RFU, WDR92 / Fold change vs veh, WDR92 / RFU, CUX1 / Fold change vs veh, CUX1 / RFU, TTC7A / Fold change vs veh, TTC7A / RFU, TMEM135 / Fold change vs veh, TMEM135 / RFU, DEPTOR / Fold change vs veh, DEPTOR / RFU, CPM / Fold change vs veh, CPM / RFU, DNAJB6 / Fold change vs veh, DNAJB6 / RFU, CACNA2D3 / Fold change vs veh, CACNA2D3 / RFU, DTX4 / Fold change vs veh, DTX4 / RFU, TFCP2 / Fold change vs veh, TFCP2 / RFU, GMCL1 /// GMCL1P1 / Fold change vs veh, GMCL1 /// GMCL1P1 / RFU, AEBP2 / Fold change vs veh, AEBP2 / RFU, SNHG1 /// SNORD22 /// SNORD25 /// SNORD26 /// SNORD27 /// SNORD28 /// SNORD29 /// SNORD31 / Fold change vs veh, SNHG1 /// SNORD22 /// SNORD25 /// SNORD26 /// SNORD27 /// SNORD28 /// SNORD29 /// SNORD31 / Fold change (Aza/veh), C12orf56 (ProbeSet 11735607_a_at) / Fold change (ACY-1035/veh), C12orf56 (ProbeSet 11735607_a_at) / Fold change (Aza/veh), FGFR1OP (ProbeSet 11751329_s_at) / Fold change (ACY-1035/veh), FGFR1OP (ProbeSet 11751329_s_at) / Fold change (Aza/veh), VPS36 (ProbeSet 11739960_a_at) / Fold change (ACY-1035/veh), VPS36 (ProbeSet 11739960_a_at) / RFU SYPL1 (11715823_x_at) / Fold change /veh SYPL1 (11715823_x_at) / RFU IGFBP7 (11715501_s_at) / Fold change /veh IGFBP7 (11715501_s_at) / RFU REEP3 (11722064_at) / Fold change /veh REEP3 (11722064_at) / RFU IGLL1 (11728026_x_at) / Fold change /veh IGLL1 (11728026_x_at): dose or concentration left out as unconfirmed
# Conditions: ProbeSet 11727958_a_at; LIST B
smiles,measurement,value
Nc1ccc(-c2cccs2)cc1NC(=O)c1ccc2c(c1)cc(C1CC1)n2CCN1CCOCC1 [ACY-1035],"RFU, ING1",74.08 RFU
